Source: patent US8609836B2, “4-aryl-2-anilino-pyrimidines” (Janssen Pharmaceutica NV, priority 2008, dated 2013)

Assays:
[1] = system: U87-MG; experiment: Cellular proliferation assay (Alamar blue), U87-MG; assay type: cell-based; settings: Homo sapiens, U-87 MG; 10% FCS; 72 hours with compound; Alamar blue 6 h; read-out: U87-MG (cellular proliferation assay, Table 4) (converted)
How it was run: (§1)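 Cells were seeded in medium with 10% FCS at 37° C, 5% CO2, left 24 h without compound, then exposed to compounds for 72 h. Viability was read with Alamar blue (resazurin 9 μg/ml, K-ferrocyanide and K-ferricyanide 90 μM each), 6 h for U87-MG, 4 h for HCT-116, 24 h for A2780 and MDA-MB-231.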

[2] = target: AuroraB (h) (Homo sapiens, UniProt Q96GD4); experiment: Aurora-B human kinase inhibition, SPA; assay type: biochemical; settings: read-out: AuroraB pIC50 (converted)
How it was run: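 SPA with biotinylated peptide (3 μM) in 60 mM Hepes pH 7.5, Mg/Mn 3 mM each, 0.5 μM ATP plus [γ-33P]ATP, AuroraB at 0.5 μg/ml. The reaction runs 60 min at room temperature and is stopped with EDTA and streptavidin PVT beads. 33P-substrate is read by scintillation imaging.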

[3] = target: PLK3 (h) (Homo sapiens, UniProt Q9H4B4); experiment: PLK3 human kinase inhibition, SPA; assay type: biochemical; settings: read-out: PLK3 pIC50 (converted)
How it was run: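 SPA: PLK3 (h) at 30 μg/ml with 2 μM biotinylated peptide, 0.1 μM ATP plus 2 nM [γ-33P]ATP in 50 mM Hepes pH 8.0, 2 mM MnCl2 and 1 mM DTT. Incubated 20 min at room temperature, then stopped with EDTA and streptavidin PVT beads. Scintillation imaged on Leadseeker.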

[4] = target: PLK1 T210D (h) (Homo sapiens, UniProt P53350, T210D); experiment: PLK1 human kinase inhibition, SPA; assay type: biochemical; settings: read-out: PLK1 pIC50 (converted)
How it was run: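 Radiometric SPA with PLK1 T210D (0.125 ng/ml) in 50 mM Hepes pH 8.0, 2 mM MnCl2, 1 mM DTT, 2 μM biotinylated peptide, 0.1 μM ATP plus 2 nM [γ-33P]ATP. 40 min at room temperature, EDTA stop. Phosphorylated substrate captured on streptavidin PVT beads, scintillation imaged.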

[5] = target: GSK3β (h) (Homo sapiens, UniProt P49841); experiment: GSK-3β human kinase inhibition, SPA; assay type: biochemical; settings: read-out: GSK3b pIC50 (converted)
How it was run: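 Scintillation proximity assay: GSK3β (1 μg/ml) with 1 μM biotinylated peptide, 1 μM ATP plus [γ-33P]ATP in Tris pH 7.4, MgCl2, DTT. 60 min at room temperature, stopped with EDTA and streptavidin PVT beads; phosphorylation read by Leadseeker imaging.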

[6] = system: HCT-116; experiment: Cellular proliferation assay (Alamar blue), HCT-116; assay type: cell-based; settings: Homo sapiens, 10% FCS, 72 hours with compound, Alamar blue 4 h
How it was run: as §1

[7] = system: A2780; experiment: Cellular proliferation assay (Alamar blue), A2780; assay type: cell-based; settings: Homo sapiens, 10% FCS, 72 hours with compound, Alamar blue 24 h, read-out: A2780 (cellular proliferation assay, Table 4) (converted)
How it was run: as §1

[8] = target: CDK1/CyclinB (h) (Homo sapiens, UniProt P06493); experiment: CDK1/CyclinB human kinase inhibition, Invitrogen's FRET assay (Z'lyte); assay type: biochemical; settings: read-out: CDK1 pIC50 (converted)
How it was run: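 Z'lyte FRET assay: human CDK1/CyclinB (0.2 μg/ml) with 2 μM Ser/Thr peptide 12 and 10 μM ATP in 50 mM Hepes pH 7.5, MgCl2, EGTA, Brij-35, 60 min at room temperature. Protease development 60 min, then emission ratio 460/538 nm read with excitation at 390 nm.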

[9] = system: H1299; experiment: Cellular proliferation assay (Alamar blue), H1299; assay type: cell-based; settings: Homo sapiens, NCI-H1299; 10% FCS; 72 hours with compound; Alamar blue 4 h
How it was run: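 This proliferation assay on NCI-H1299 cells used an initial 24-hour compound-free incubation after seeding, followed by 72 hours of compound treatment with 10% FCS serum at 37° C. and 5% (v/v) CO2. Viable cells were quantified by a 4 h Alamar blue incubation and fluorescent plate reading at 544 nm/590 nm, and effects were expressed relative to control cells.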

Chain of PLK3 (h) (Q9H4B4 whole entry): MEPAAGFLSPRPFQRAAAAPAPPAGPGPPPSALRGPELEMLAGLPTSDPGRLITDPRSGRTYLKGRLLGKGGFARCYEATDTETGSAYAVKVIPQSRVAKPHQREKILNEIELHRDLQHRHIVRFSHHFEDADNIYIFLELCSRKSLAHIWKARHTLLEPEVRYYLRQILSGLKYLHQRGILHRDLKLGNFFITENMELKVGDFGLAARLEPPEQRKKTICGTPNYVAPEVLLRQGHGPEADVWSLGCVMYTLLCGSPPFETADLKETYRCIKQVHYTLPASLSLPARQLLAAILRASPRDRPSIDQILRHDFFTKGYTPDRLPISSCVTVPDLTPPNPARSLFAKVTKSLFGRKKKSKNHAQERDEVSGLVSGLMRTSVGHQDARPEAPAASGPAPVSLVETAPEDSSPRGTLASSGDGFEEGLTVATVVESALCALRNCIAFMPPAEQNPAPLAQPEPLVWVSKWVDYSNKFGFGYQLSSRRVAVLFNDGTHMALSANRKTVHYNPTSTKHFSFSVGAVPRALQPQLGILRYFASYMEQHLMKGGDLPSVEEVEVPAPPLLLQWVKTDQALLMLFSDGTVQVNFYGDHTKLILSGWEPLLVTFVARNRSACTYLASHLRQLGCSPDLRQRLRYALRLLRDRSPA
Chain of GSK3β (h) (P49841 whole entry): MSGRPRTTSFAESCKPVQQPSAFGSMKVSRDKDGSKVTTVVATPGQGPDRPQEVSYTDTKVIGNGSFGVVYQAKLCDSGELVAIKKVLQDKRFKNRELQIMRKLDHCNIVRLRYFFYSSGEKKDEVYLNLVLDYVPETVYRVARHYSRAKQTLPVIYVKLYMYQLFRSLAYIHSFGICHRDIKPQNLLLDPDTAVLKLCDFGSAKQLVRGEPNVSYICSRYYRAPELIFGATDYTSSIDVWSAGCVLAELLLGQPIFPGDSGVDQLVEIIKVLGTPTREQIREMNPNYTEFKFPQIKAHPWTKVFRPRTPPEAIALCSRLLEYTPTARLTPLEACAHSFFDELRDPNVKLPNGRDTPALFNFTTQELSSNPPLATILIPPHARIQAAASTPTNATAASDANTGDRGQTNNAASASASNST
Chain of PLK1 T210D (h) (P53350 whole entry T210D): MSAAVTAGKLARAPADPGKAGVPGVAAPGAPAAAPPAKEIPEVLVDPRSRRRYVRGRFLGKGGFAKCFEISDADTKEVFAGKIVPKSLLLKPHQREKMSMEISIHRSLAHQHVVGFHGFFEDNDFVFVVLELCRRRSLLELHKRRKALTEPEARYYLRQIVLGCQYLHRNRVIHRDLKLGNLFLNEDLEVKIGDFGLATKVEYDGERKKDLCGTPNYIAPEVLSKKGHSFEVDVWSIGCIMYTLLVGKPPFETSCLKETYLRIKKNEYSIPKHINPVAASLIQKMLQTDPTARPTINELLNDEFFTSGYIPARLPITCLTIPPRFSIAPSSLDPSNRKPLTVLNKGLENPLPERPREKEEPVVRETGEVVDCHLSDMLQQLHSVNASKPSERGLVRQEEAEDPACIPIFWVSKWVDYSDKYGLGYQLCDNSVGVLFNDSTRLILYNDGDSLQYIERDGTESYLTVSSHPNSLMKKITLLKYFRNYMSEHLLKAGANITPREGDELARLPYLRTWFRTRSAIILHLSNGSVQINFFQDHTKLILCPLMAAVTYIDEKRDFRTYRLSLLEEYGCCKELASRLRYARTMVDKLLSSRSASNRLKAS
Chain of AuroraB (h) (Q96GD4 whole entry): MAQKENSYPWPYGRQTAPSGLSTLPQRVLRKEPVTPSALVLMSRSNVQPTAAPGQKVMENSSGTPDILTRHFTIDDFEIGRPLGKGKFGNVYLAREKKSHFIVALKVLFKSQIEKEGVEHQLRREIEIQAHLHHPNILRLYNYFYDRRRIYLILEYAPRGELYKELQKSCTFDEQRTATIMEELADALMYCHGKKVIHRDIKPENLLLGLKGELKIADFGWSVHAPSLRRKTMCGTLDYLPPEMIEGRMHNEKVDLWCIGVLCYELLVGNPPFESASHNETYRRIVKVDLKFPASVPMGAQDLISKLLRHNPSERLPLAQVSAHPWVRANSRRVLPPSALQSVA
Chain of CDK1/CyclinB (h) (P06493 whole entry): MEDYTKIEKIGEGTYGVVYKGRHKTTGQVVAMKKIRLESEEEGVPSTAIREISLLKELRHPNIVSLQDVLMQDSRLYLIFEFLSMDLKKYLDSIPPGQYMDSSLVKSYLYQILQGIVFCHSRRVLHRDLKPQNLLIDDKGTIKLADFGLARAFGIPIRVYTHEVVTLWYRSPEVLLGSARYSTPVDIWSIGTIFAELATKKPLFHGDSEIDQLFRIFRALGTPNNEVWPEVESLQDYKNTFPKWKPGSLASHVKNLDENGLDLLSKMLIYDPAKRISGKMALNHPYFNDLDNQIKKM
Chain of CDK1/CyclinB (h) (P14635 whole entry partner): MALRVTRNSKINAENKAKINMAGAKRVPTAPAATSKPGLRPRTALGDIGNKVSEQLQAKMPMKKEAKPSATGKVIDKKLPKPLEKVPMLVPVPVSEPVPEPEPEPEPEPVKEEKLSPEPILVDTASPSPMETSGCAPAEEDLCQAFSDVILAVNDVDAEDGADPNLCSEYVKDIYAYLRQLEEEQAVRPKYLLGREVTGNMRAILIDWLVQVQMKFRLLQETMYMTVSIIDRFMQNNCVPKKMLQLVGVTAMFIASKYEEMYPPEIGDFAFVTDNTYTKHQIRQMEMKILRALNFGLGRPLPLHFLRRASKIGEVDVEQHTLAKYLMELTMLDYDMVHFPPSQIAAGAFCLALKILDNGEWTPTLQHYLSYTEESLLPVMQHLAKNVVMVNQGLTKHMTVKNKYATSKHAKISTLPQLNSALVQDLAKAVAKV

Compound | IC50 [1] | IC50 [2] | IC50 [3] | IC50 [4] | IC50 [5] | IC50 [6] | IC50 [7] | IC50 [8] | IC50 [9]
O=C1NCCCOc2cccc(c2)-c2ccnc(n2)Nc2ccc(N3CCOCC3)c(c2)CN[C@H]1Cc1ccccc1 [Compound 91] | > 10 µM | > 10 µM | > 10 µM | > 10 µM | 2.69 µM | 6.17 µM | > 10 µM | > 10 µM | > 10 µM
COc1ccc2cc1CN(C)CCNC(=O)[C@@H]1CCCN1Cc1cccc(c1)Nc1nccc-2n1 [Compound 175] | > 10 µM | > 10 µM | > 10 µM | > 10 µM | > 10 µM | > 10 µM | > 10 µM | > 10 µM | > 10 µM
COc1ccc2cc1CN(C)CCCNC(=O)[C@@H]1CCCN1Cc1cc(cc(NC(C)C)c1)Nc1nccc-2n1 [Compound 164] | 2.09 µM | > 10 µM | > 10 µM | > 10 µM | > 10 µM | > 10 µM | > 10 µM | > 10 µM | > 10 µM
CC(C)Nc1cc2cc(c1)Nc1nccc(n1)-c1ccc(cc1)CN(C)CCNC(=O)C1CCN(CC1)C2 [Compound 61] | 5.62 µM | 8.32 µM | > 10 µM | > 10 µM | 7.59 µM | 7.94 µM | 6.31 µM | > 10 µM | > 10 µM
O=C(NC1CCOCC1)c1ccc2cc1CN1CCC[C@H]1C(=O)NCc1cccc(c1)-c1ccnc(n1)N2 [Compound 46] | > 10 µM | > 10 µM | > 10 µM | > 10 µM | 0.204 µM | 2.24 µM | 5.5 µM | > 10 µM | > 10 µM
O=C1NCCNc2cc(ccn2)-c2ccnc(n2)Nc2ccc(N3CCOCC3)c(c2)CN2CCC1CC2 [Compound 84] | 9.33 µM | 7.08 µM | > 10 µM | > 10 µM | 1.55 µM | > 10 µM | > 10 µM | > 10 µM | > 10 µM
COc1ccc2cc1CN1CCN(CC1)CC(=O)N(C)CCN(C)c1ccc(cn1)-c1ccnc(n1)N2 [Compound 14] | > 10 µM | > 10 µM | > 10 µM | > 10 µM | 4.9 µM | 5.89 µM | > 10 µM | > 3.02 µM | > 10 µM
COc1ccc2cc1CN(C)CCCNC(=O)CN1CCN(CC1)Cc1cc(cc(NC(C)C)c1)Nc1nccc-2n1 [Compound 130] | > 10 µM | 6.31 µM | > 10 µM | > 10 µM | 5.37 µM | > 10 µM | > 10 µM | 7.76 µM | > 10 µM
CN(C)CCNC(=O)c1ccc2cc1CN1CCC[C@H]1C(=O)NCc1cccc(c1)-c1ccnc(n1)N2 [Compound 42] | 1.82 µM | > 10 µM | > 3.02 µM | > 10 µM | 0.331 µM | 0.955 µM | 1.45 µM | ~1.35 µM | 3.39 µM
O=C1CN2CCN(CC2)Cc2cc(ccc2N2CCOCC2)Nc2nccc(n2)-c2cccc(c2)OCCCN1 [Compound 103] | > 10 µM | > 10 µM | > 10 µM | > 10 µM | 1.55 µM | > 10 µM | > 10 µM | > 10 µM | > 10 µM
COc1ccc2cc1CN(C)CCCNC(=O)C1CCN(CC1)Cc1cc(cc(N3CCOCC3)c1)Nc1nccc-2n1 [Compound 80] | > 10 µM | > 10 µM | > 10 µM | > 10 µM | > 10 µM | > 10 µM | > 10 µM | > 10 µM | > 10 µM
COc1ccc2cc1CNCCNC(=O)CN1CCN(CC1)Cc1cc(ccc1N1CCOCC1)Nc1nccc-2n1 [Compound 126] | > 10 µM | 8.71 µM | > 10 µM | > 10 µM | > 10 µM | 8.71 µM | 5.37 µM | > 10 µM | > 10 µM
CN1CCCNC(=O)C2CCN(CC2)Cc2cccc(c2)Nc2nccc(n2)-c2ccc(cc2)C1 [Compound 78] | 7.08 µM | > 10 µM | > 10 µM | > 10 µM | > 10 µM | > 10 µM | > 10 µM | > 10 µM | > 10 µM
COc1ccc2cc1CNCCNC(=O)[C@@H]1C[C@@H](O)CN1Cc1cc(ccc1N1CCOCC1)Nc1nccc-2n1 [Compound 177] | > 10 µM | > 10 µM | > 10 µM | > 10 µM | > 10 µM | > 10 µM | > 10 µM | > 10 µM | > 10 µM
C[C@@H]1NCc2cc(ccc2N2CCOCC2)Nc2nccc(n2)-c2ccc(cc2)OCCCNC1=O [Compound 5] | > 10 µM | > 10 µM | > 10 µM | > 10 µM | 0.135 µM | 1.74 µM | > 10 µM | > 10 µM | > 10 µM
C[C@H]1NCc2cc(ccc2N2CCOCC2)Nc2nccc(n2)-c2cccc(c2)OCCCNC1=O [Compound 87] | 6.17 µM | > 10 µM | > 10 µM | > 10 µM | 0.214 µM | 3.8 µM | 8.71 µM | 7.08 µM | > 10 µM
COc1ccc2cc1CN(C)CCCNC(=O)C1CCN(CC1)Cc1cc(Br)cc(c1)Nc1nccc-2n1 [Compound 76] | 7.24 µM | 5.5 µM | > 10 µM | > 10 µM | > 10 µM | > 10 µM | > 10 µM | > 10 µM | > 10 µM
COc1ccc2cc1CN1CCC(CC1)C(=O)N(C)CCN(C)c1ccc(cn1)-c1ccnc(n1)N2 [Compound 4] | > 10 µM | > 10 µM | > 10 µM | > 10 µM | 3.63 µM | 5.25 µM | > 10 µM | > 10 µM | > 10 µM
COCCNC(=O)c1ccc2cc1CN1CCC[C@H]1C(=O)NCc1cccc(c1)-c1ccnc(n1)N2 [Compound 40] | 2.29 µM | > 10 µM | > 10 µM | > 10 µM | 0.162 µM | 2.19 µM | 4.68 µM | 3.09 µM | > 10 µM
O=C1NCCCc2cc(ccn2)-c2ccnc(n2)Nc2ccc(N3CCOCC3)c(c2)CN2CCCC12 (stereo not shown) [Compound 48] | > 10 µM | > 10 µM | > 10 µM | > 10 µM | 9.12 µM | > 10 µM | > 10 µM | > 10 µM | > 10 µM
O=C1CN2CCN(CC2)Cc2cccc(c2)Nc2nccc(n2)-c2ccnc(c2)CCCN1 [Compound 21] | 2.82 µM | > 10 µM | > 10 µM | > 10 µM | 0.0166 µM | 2.29 µM | 7.59 µM | 0.105 µM | 
O=C1NCCCc2cc(ccn2)-c2ccnc(n2)Nc2cccc(c2)CN[C@H]1CO [Compound 19] | 1.07 µM | > 10 µM | > 10 µM | > 10 µM | 0.0372 µM | 0.724 µM | 1.45 µM | 0.0562 µM | 
